Key:
[1] = system: Smn protein in SMA patient fibroblast cells (GM03813); assay: Smn protein assay in cultured cells (SMN HTRF); type: cell-based, human; conditions: SMA patient fibroblast cells, 48 hours; for EC1.5x for Smn protein expression: 7-point concentration curve, SMN HTRF, concentration producing 1.5 times Smn protein vs DMSO vehicle control; for maximum fold (Fold) increase of Smn protein: 7-point concentration data, fold relative to vehicle control
In short: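 Fibroblasts, SMA patient; 5,000 cells/well; 7-pt curve, 3.16-fold serial dilution; 48 h, 37 °C, 5% CO2; RIPA lysis 1 h RT; anti-SMN d2 + kryptate overnight RT; HTRF 665/620 nm; fold vs DMSO; EC1.5×, max fold.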

[2] = system: SMN2 minigene mRNA (SMN2-A minigene) in HEK293H cells; assay: SMN2 minigene mRNA splicing RT-qPCR assay in cultured cells; type: cell-based, human; conditions: Homo sapiens, HEK293-H; concentration increasing full length SMN2 mRNA 1.5-fold relative to vehicle-treated cells; HEK293H cells with SMN2-A minigene, 24 hours, 7-point concentration data; read-out: EC1.5x for production of full length SMN2 mRNA
In short: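 Stable SMN2-A minigene HEK293H; cpd 7-pt 3.16-fold series, 200× in DMSO, 24 h, 37 °C, n=2. Lysates → multiplex RT-qPCR (minigene FL + GAPDH), efficiency-corrected ΔΔCt vs vehicle. EC1.5× = 1.5-fold FL mRNA gain.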

## CCCN1CCN(c2ccc3nc(-c4cc5c(CC)nc(C)cn5n4)cc(=O)n3c2)C[C@H]1C [Compound 631, 2-(4-ethyl-6-methylpyrazolo[1,5-a]pyrazin-2-yl)-7-[(3R)-3-methyl-4-propylpiperazin-1-yl]-4H-pyrido[1,2-a]pyrimidin-4-one]
other
  melting point: 243 to 245 °C
[1]
  EC1.5x for Smn protein expression: *** (an EC1.5× between >0.3 μM and ≤1 μM is indicated by three stars (***))
  maximum fold (Fold) increase of Smn protein: ***** (a fold increase >1.65 is indicated by five stars (*****))
[2]
  EC (1.5-fold increase): 0.1 to 0.3 µM

## CCc1nc(C)cn2nc(-c3cc(=O)n4cc(N5CCN(CCO)[C@H](C)C5)ccc4n3)cc12 [Compound 632, 2-(4-ethyl-6-methylpyrazolo[1,5-a]pyrazin-2-yl)-7-[(3R)-4-(2-hydroxyethyl)-3-methylpiperazin-1-yl]-4H-pyrido[1,2-a]pyrimidin-4-one]
other
  melting point: 238 to 241 °C
[1]
  EC1.5x for Smn protein expression: **** (an EC1.5x≤0.3 μM is indicated by four stars (****))
  maximum fold (Fold) increase of Smn protein: ***** (a fold increase >1.65 is indicated by five stars (*****))
[2]
  EC (1.5-fold increase): < 0.1 µM

## CCc1nc(C)cn2nc(-c3cc(=O)n4cc(N5C[C@@H](C)N[C@@H](C)C5)ccc4n3)cc12 [Compound 633, 7-[(3R,5S)-3,5-dimethylpiperazin-1-yl]-2-(4-ethyl-6-methylpyrazolo[1,5-a]pyrazin-2-yl)-4H-pyrido[1,2-a]pyrimidin-4-one]
other
  melting point: 258 to 260 °C
[1]
  EC1.5x for Smn protein expression: **** (an EC1.5x≤0.3 μM is indicated by four stars (****))
  maximum fold (Fold) increase of Smn protein: ***** (a fold increase >1.65 is indicated by five stars (*****))
[2]
  EC (1.5-fold increase): < 0.1 µM

## CCc1nc(C)cn2nc(-c3cc(=O)n4cc(N5CCC(N6CCCC6)CC5)ccc4n3)cc12 [Compound 634, 2-(4-ethyl-6-methylpyrazolo[1,5-a]pyrazin-2-yl)-7-[4-(pyrrolidin-1-yl)piperidin-1-yl]-4H-pyrido[1,2-a]pyrimidin-4-one]
other
  melting point: 229 to 232 °C
[1]
  EC1.5x for Smn protein expression: **** (an EC1.5x≤0.3 μM is indicated by four stars (****))
  maximum fold (Fold) increase of Smn protein: ***** (a fold increase >1.65 is indicated by five stars (*****))
[2]
  EC (1.5-fold increase): < 0.1 µM

## CCc1nc(C)cn2nc(-c3cc(=O)n4cc(N5CCN[C@@H](C)C5)ccc4n3)cc12 [Compound 635, 2-(4-ethyl-6-methylpyrazolo[1,5-a]pyrazin-2-yl)-7-[(3S)-3-methylpiperazin-1-yl]-4H-pyrido[1,2-a]pyrimidin-4-one]
other
  melting point: 202 to 204 °C
[1]
  EC1.5x for Smn protein expression: **** (an EC1.5x≤0.3 μM is indicated by four stars (****))
  maximum fold (Fold) increase of Smn protein: ***** (a fold increase >1.65 is indicated by five stars (*****))
[2]
  EC (1.5-fold increase): < 0.1 µM

## CCc1nc(C)cn2nc(-c3cc(=O)n4cc(N5CCCN(C)CC5)ccc4n3)cc12 [Compound 636, 2-(4-ethyl-6-methylpyrazolo[1,5-a]pyrazin-2-yl)-7-(4-methyl-1,4-diazepan-1-yl)-4H-pyrido[1,2-a]pyrimidin-4-one]
other
  melting point: 175 to 180 °C
[1]
  EC1.5x for Smn protein expression: **** (an EC1.5x≤0.3 μM is indicated by four stars (****))
  maximum fold (Fold) increase of Smn protein: ***** (a fold increase >1.65 is indicated by five stars (*****))
[2]
  EC (1.5-fold increase): < 0.1 µM

## CCc1cc(-c2cc(=O)n3cc(N4CCNCC4)ccc3n2)cn2cc(C)nc12 [Compound 637, 2-(8-ethyl-2-methylimidazo[1,2-a]pyridin-6-yl)-7-(piperazin-1-yl)-4H-pyrido[1,2-a]pyrimidin-4-one]
other
  melting point: 264 to 271 °C
[1]
  EC1.5x for Smn protein expression: **** (an EC1.5x≤0.3 μM is indicated by four stars (****))
  maximum fold (Fold) increase of Smn protein: ***** (a fold increase >1.65 is indicated by five stars (*****))
[2]
  EC (1.5-fold increase): < 0.1 µM

Reference: patent publication US11753407B2, “Compounds for treating spinal muscular atrophy” (PTC Therapeutics, Inc., priority 2012, dated 2023)
